# Measurements taken from PubChem BioAssay (NCI).
#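 48-hour exposure; five concentrations; linearly interpolated endpoints. TGI marks complete inhibition of growth.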
# Test system: LOX IMVI melanoma
# Test: NCI anticancer screen, dose series, 48 h
row,Structure (SMILES),TGI [µM]
1,COc1cc(OCc2ccc3nc(-c4ccccc4)c(Cl)nc3c2)cc(OC)c1OC,> 100
2,CCC(Sc1cc(Cl)c(C)cc1S(=O)(=O)Nc1nc(N)nc(N(C)C)n1)C(=O)O (configuration not stated),> 10
3,O=C(N/N=C/c1ccc2c(c1)OCO2)Nc1ccccc1Cl,> 100
4,CC1(C)C2CCC3=C(CCC4(C)C5C[C@](C)(C(=O)O)CC[C@]5(C)CC[C@]34C)[C@@]2(C)CC[C@@H]1O (some centres not stated),31.2
5,CCOC(=O)C(SCCO)C(C(=O)OCC)n1cnc2c(N)ncnc21 (configuration not stated),15.1
6,O=C1CC(CC(O)[C@@H]2CCCC[C@@H]2O)CC(=O)N1c1ccccc1 (some centres not stated),> 100
7,COc1ccc2nc3c([N+](=O)[O-])ccc4c3c(c2c1)N=CN4CCCN(C)C,8.78
8,Cc1c(C)c2c(c(N)c1C#N)C(=O)N(CCc1ccccc1)C2=O,> 100

# Test system: CCRF-CEM leukemia
# Test: NCI anticancer screen, dose series, 48 h
row,Structure (SMILES),TGI [µM]
1,COc1cc(OCc2ccc3nc(-c4ccccc4)c(Cl)nc3c2)cc(OC)c1OC,> 100
2,CCC(Sc1cc(Cl)c(C)cc1S(=O)(=O)Nc1nc(N)nc(N(C)C)n1)C(=O)O (configuration not stated),> 10
3,O=C(N/N=C/c1ccc2c(c1)OCO2)Nc1ccccc1Cl,> 100
4,CC1(C)C2CCC3=C(CCC4(C)C5C[C@](C)(C(=O)O)CC[C@]5(C)CC[C@]34C)[C@@]2(C)CC[C@@H]1O (some centres not stated),36.3
5,CCOC(=O)C(SCCO)C(C(=O)OCC)n1cnc2c(N)ncnc21 (configuration not stated),6.39
6,O=C1CC(CC(O)[C@@H]2CCCC[C@@H]2O)CC(=O)N1c1ccccc1 (some centres not stated),> 100
7,COc1ccc2nc3c([N+](=O)[O-])ccc4c3c(c2c1)N=CN4CCCN(C)C,3.18
8,Cc1c(C)c2c(c(N)c1C#N)C(=O)N(CCc1ccccc1)C2=O,> 100

# Test system: 786-0 renal
# Test: NCI anticancer screen, dose series, 48 h
row,Structure (SMILES),TGI [µM]
1,COc1cc(OCc2ccc3nc(-c4ccccc4)c(Cl)nc3c2)cc(OC)c1OC,> 100
2,CCC(Sc1cc(Cl)c(C)cc1S(=O)(=O)Nc1nc(N)nc(N(C)C)n1)C(=O)O (configuration not stated),> 10
3,O=C(N/N=C/c1ccc2c(c1)OCO2)Nc1ccccc1Cl,> 55
4,CC1(C)C2CCC3=C(CCC4(C)C5C[C@](C)(C(=O)O)CC[C@]5(C)CC[C@]34C)[C@@]2(C)CC[C@@H]1O (some centres not stated),29.3
5,CCOC(=O)C(SCCO)C(C(=O)OCC)n1cnc2c(N)ncnc21 (configuration not stated),12.2
6,O=C1CC(CC(O)[C@@H]2CCCC[C@@H]2O)CC(=O)N1c1ccccc1 (some centres not stated),> 100
7,COc1ccc2nc3c([N+](=O)[O-])ccc4c3c(c2c1)N=CN4CCCN(C)C,14.3
8,Cc1c(C)c2c(c(N)c1C#N)C(=O)N(CCc1ccccc1)C2=O,> 100

# Test system: ACHN renal
# Test: NCI anticancer screen, dose series, 48 h
row,Structure (SMILES),TGI [µM]
1,COc1cc(OCc2ccc3nc(-c4ccccc4)c(Cl)nc3c2)cc(OC)c1OC,> 100
2,CCC(Sc1cc(Cl)c(C)cc1S(=O)(=O)Nc1nc(N)nc(N(C)C)n1)C(=O)O (configuration not stated),> 10
3,O=C(N/N=C/c1ccc2c(c1)OCO2)Nc1ccccc1Cl,> 100
4,CC1(C)C2CCC3=C(CCC4(C)C5C[C@](C)(C(=O)O)CC[C@]5(C)CC[C@]34C)[C@@]2(C)CC[C@@H]1O (some centres not stated),29.9
5,CCOC(=O)C(SCCO)C(C(=O)OCC)n1cnc2c(N)ncnc21 (configuration not stated),22.4
6,O=C1CC(CC(O)[C@@H]2CCCC[C@@H]2O)CC(=O)N1c1ccccc1 (some centres not stated),> 100
7,COc1ccc2nc3c([N+](=O)[O-])ccc4c3c(c2c1)N=CN4CCCN(C)C,15.3
8,Cc1c(C)c2c(c(N)c1C#N)C(=O)N(CCc1ccccc1)C2=O,> 100

# Test system: SW-620 colon
# Test: NCI anticancer screen, dose series, 48 h
row,Structure (SMILES),TGI [µM]
1,COc1cc(OCc2ccc3nc(-c4ccccc4)c(Cl)nc3c2)cc(OC)c1OC,> 100
2,CCC(Sc1cc(Cl)c(C)cc1S(=O)(=O)Nc1nc(N)nc(N(C)C)n1)C(=O)O (configuration not stated),> 10
3,O=C(N/N=C/c1ccc2c(c1)OCO2)Nc1ccccc1Cl,> 100
4,CC1(C)C2CCC3=C(CCC4(C)C5C[C@](C)(C(=O)O)CC[C@]5(C)CC[C@]34C)[C@@]2(C)CC[C@@H]1O (some centres not stated),32.3
5,CCOC(=O)C(SCCO)C(C(=O)OCC)n1cnc2c(N)ncnc21 (configuration not stated),12.5
6,O=C1CC(CC(O)[C@@H]2CCCC[C@@H]2O)CC(=O)N1c1ccccc1 (some centres not stated),> 100
7,COc1ccc2nc3c([N+](=O)[O-])ccc4c3c(c2c1)N=CN4CCCN(C)C,> 44.3
8,Cc1c(C)c2c(c(N)c1C#N)C(=O)N(CCc1ccccc1)C2=O,> 100

# Test system: NCI-H522 lung
# Test: NCI anticancer screen, dose series, 48 h
row,Structure (SMILES),TGI [µM]
1,COc1cc(OCc2ccc3nc(-c4ccccc4)c(Cl)nc3c2)cc(OC)c1OC,> 100
2,CCC(Sc1cc(Cl)c(C)cc1S(=O)(=O)Nc1nc(N)nc(N(C)C)n1)C(=O)O (configuration not stated),> 10
3,O=C(N/N=C/c1ccc2c(c1)OCO2)Nc1ccccc1Cl,1.1
4,CC1(C)C2CCC3=C(CCC4(C)C5C[C@](C)(C(=O)O)CC[C@]5(C)CC[C@]34C)[C@@]2(C)CC[C@@H]1O (some centres not stated),40.8
5,CCOC(=O)C(SCCO)C(C(=O)OCC)n1cnc2c(N)ncnc21 (configuration not stated),19.1
6,O=C1CC(CC(O)[C@@H]2CCCC[C@@H]2O)CC(=O)N1c1ccccc1 (some centres not stated),> 100
7,COc1ccc2nc3c([N+](=O)[O-])ccc4c3c(c2c1)N=CN4CCCN(C)C,9.61
8,Cc1c(C)c2c(c(N)c1C#N)C(=O)N(CCc1ccccc1)C2=O,> 100

# Test system: M14 melanoma
# Test: NCI anticancer screen, dose series, 48 h
row,Structure (SMILES),TGI [µM]
1,COc1cc(OCc2ccc3nc(-c4ccccc4)c(Cl)nc3c2)cc(OC)c1OC,> 100
2,CCC(Sc1cc(Cl)c(C)cc1S(=O)(=O)Nc1nc(N)nc(N(C)C)n1)C(=O)O (configuration not stated),> 10
3,O=C(N/N=C/c1ccc2c(c1)OCO2)Nc1ccccc1Cl,> 39.5
4,CC1(C)C2CCC3=C(CCC4(C)C5C[C@](C)(C(=O)O)CC[C@]5(C)CC[C@]34C)[C@@]2(C)CC[C@@H]1O (some centres not stated),31.8
5,CCOC(=O)C(SCCO)C(C(=O)OCC)n1cnc2c(N)ncnc21 (configuration not stated),9.83
6,O=C1CC(CC(O)[C@@H]2CCCC[C@@H]2O)CC(=O)N1c1ccccc1 (some centres not stated),> 100
7,COc1ccc2nc3c([N+](=O)[O-])ccc4c3c(c2c1)N=CN4CCCN(C)C,23.6
8,Cc1c(C)c2c(c(N)c1C#N)C(=O)N(CCc1ccccc1)C2=O,> 100

# Test system: SNB-75 CNS
# Test: NCI anticancer screen, dose series, 48 h
row,Structure (SMILES),TGI [µM]
1,COc1cc(OCc2ccc3nc(-c4ccccc4)c(Cl)nc3c2)cc(OC)c1OC,> 100
2,CCC(Sc1cc(Cl)c(C)cc1S(=O)(=O)Nc1nc(N)nc(N(C)C)n1)C(=O)O (configuration not stated),> 10
3,O=C(N/N=C/c1ccc2c(c1)OCO2)Nc1ccccc1Cl,2.38
4,CC1(C)C2CCC3=C(CCC4(C)C5C[C@](C)(C(=O)O)CC[C@]5(C)CC[C@]34C)[C@@]2(C)CC[C@@H]1O (some centres not stated),34.4
5,CCOC(=O)C(SCCO)C(C(=O)OCC)n1cnc2c(N)ncnc21 (configuration not stated),24.7
6,O=C1CC(CC(O)[C@@H]2CCCC[C@@H]2O)CC(=O)N1c1ccccc1 (some centres not stated),> 100
7,COc1ccc2nc3c([N+](=O)[O-])ccc4c3c(c2c1)N=CN4CCCN(C)C,11.1
8,Cc1c(C)c2c(c(N)c1C#N)C(=O)N(CCc1ccccc1)C2=O,> 100

# Test system: MDA-N
# Test: NCI anticancer screen, dose series, 48 h
row,Structure (SMILES),TGI [µM]
1,COc1cc(OCc2ccc3nc(-c4ccccc4)c(Cl)nc3c2)cc(OC)c1OC,> 100
2,CCC(Sc1cc(Cl)c(C)cc1S(=O)(=O)Nc1nc(N)nc(N(C)C)n1)C(=O)O (configuration not stated),> 10
3,O=C(N/N=C/c1ccc2c(c1)OCO2)Nc1ccccc1Cl,0.501
4,CC1(C)C2CCC3=C(CCC4(C)C5C[C@](C)(C(=O)O)CC[C@]5(C)CC[C@]34C)[C@@]2(C)CC[C@@H]1O (some centres not stated),37.8
5,CCOC(=O)C(SCCO)C(C(=O)OCC)n1cnc2c(N)ncnc21 (configuration not stated),44.1
6,O=C1CC(CC(O)[C@@H]2CCCC[C@@H]2O)CC(=O)N1c1ccccc1 (some centres not stated),> 100
7,COc1ccc2nc3c([N+](=O)[O-])ccc4c3c(c2c1)N=CN4CCCN(C)C,21.8
8,Cc1c(C)c2c(c(N)c1C#N)C(=O)N(CCc1ccccc1)C2=O,> 100
